Like-named read-outs stand apart in the source and are kept apart here.
How the values were obtained:
[1] = test system: Morganella morganii (MMO) isolates; assay: MIC of compounds alone and combined with antibacterials, broth microdilution (CLSI); format: cell-based; details: for MIC: Morganella morganii, ATB alone, read-out: MIC
Experimental: (§1) Method 2: MIC of Compounds Alone and Combined with Antibacterials Against Bacterial Isolates.
(§2) Compounds of the present invention were assessed against genotyped bacterial strains (Table 3, 4) alone or in combination with an antibacterial (Table 2). […] Log phase bacterial suspensions were adjusted to a final density of 5·10^5 CFU/mL in cation-adjusted Mueller-Hinton broth (ca-MHB; Becton-Dickinson and Company) and added to each well (98 μL). Microplates were incubated for 16-20 h at 35° C. in ambient air. The MIC of the compounds was defined as the lowest concentration of said compounds that prevented bacterial growth as read by visual inspection. The MIC of ATB at each compound concentration was defined as the lowest concentration of ATB that prevented bacterial growth as read by visual inspection.

[2] = test system: Proteus mirabilis (PMI) isolates; assay: microbe, parasite or virus in culture; format: cell-based; details: for MIC: Proteus mirabilis, ATB alone, read-out: MIC
Experimental: as §1, §2

## CC(C)(O/N=C(\C(=O)N[C@@H]1C(=O)N2C(C(=O)[O-])=C(C[n+]3ccccc3)CS[C@H]12)c1csc(N)n1)C(=O)O [CAZ, Ceftazidime]
[1]; MMO UFR240, AF1 @ 4 μg/mL
  MIC ATB in combination: <=0.25 μg/mL
[1]; MMO UFR240, AF1 @ 8 μg/mL
  MIC ATB in combination: <=0.25 μg/mL
[1]; MMO UFR241, AF1 @ 4 μg/mL
  MIC ATB in combination: <=0.25 μg/mL
[1]; MMO UFR241, AF1 @ 8 μg/mL
  MIC ATB in combination: <=0.25 μg/mL
[1]; MMO UFR242, AF1 @ 4 μg/mL
  MIC ATB in combination: 2 µg/mL
[1]; MMO UFR242, AF1 @ 8 μg/mL
  MIC ATB in combination: 0.25 µg/mL
[1]; MMO UFR243, AF1 @ 4 μg/mL
  MIC ATB in combination: <=0.25 μg/mL
[1]; MMO UFR243, AF1 @ 8 μg/mL
  MIC ATB in combination: <=0.25 μg/mL
[1]; MMO UFR244, AF1 @ 4 μg/mL
  MIC ATB in combination: <=0.25 μg/mL
[1]; MMO UFR244, AF1 @ 8 μg/mL
  MIC ATB in combination: <=0.25 μg/mL
[1]; MMO UFR245, AF1 @ 4 μg/mL
  MIC ATB in combination: <=0.25 μg/mL
[1]; MMO UFR245, AF1 @ 8 μg/mL
  MIC ATB in combination: <=0.25 μg/mL
[1]; MMO UFR246, AF1 @ 4 μg/mL
  MIC ATB in combination: <=0.25 μg/mL
[1]; MMO UFR246, AF1 @ 8 μg/mL
  MIC ATB in combination: <=0.25 μg/mL
[1]; strain MMO 200321 (TEM-1, CTX-M-15, OXA-1)
  MIC: 16 µg/mL
[1]; strain MMO UFR144 (TEM-1, CTX-M-15)
  MIC: 8 µg/mL
[1]; strain MMO UFR241 (TEM-1, CTX-M-15)
  MIC: 8 µg/mL
[1]; strain MMO UFR242 (TEM-52)
  MIC: 32 µg/mL
[1]; strain MMO UFR243 (DHA-1)
  MIC: 1 µg/mL
[1]; strain MMO UFR245 (DHA-1)
  MIC: 8 µg/mL
[1]; strain MMO UFR246 (DHA-1)
  MIC: 4 µg/mL
[2]; PMI UFR82, AF1 @ 4 μg/mL
  MIC ATB in combination: <=0.25 μg/mL
[2]; PMI UFR82, AF1 @ 8 μg/mL
  MIC ATB in combination: <=0.25 μg/mL
[2]; PMI UFR120, AF1 @ 4 μg/mL
  MIC ATB in combination: <=0.25 μg/mL
[2]; PMI UFR120, AF1 @ 8 μg/mL
  MIC ATB in combination: <=0.25 μg/mL
[2]; PMI UFR121, AF1 @ 4 μg/mL
  MIC ATB in combination: <=0.25 μg/mL
[2]; PMI UFR121, AF1 @ 8 μg/mL
  MIC ATB in combination: <=0.25 μg/mL
[2]; PMI UFR122, AF1 @ 4 μg/mL
  MIC ATB in combination: <=0.25 μg/mL
[2]; PMI UFR122, AF1 @ 8 μg/mL
  MIC ATB in combination: <=0.25 μg/mL
[2]; PMI UFR123, AF1 @ 4 μg/mL
  MIC ATB in combination: <=0.25 μg/mL
[2]; PMI UFR123, AF1 @ 8 μg/mL
  MIC ATB in combination: <=0.25 μg/mL
[2]; PMI UFR124, AF1 @ 4 μg/mL
  MIC ATB in combination: <=0.25 μg/mL
[2]; PMI UFR124, AF1 @ 8 μg/mL
  MIC ATB in combination: <=0.25 μg/mL
[2]; PMI UFR125, AF1 @ 4 μg/mL
  MIC ATB in combination: <=0.25 μg/mL
[2]; PMI UFR125, AF1 @ 8 μg/mL
  MIC ATB in combination: <=0.25 μg/mL
[2]; PMI UFR126, AF1 @ 4 μg/mL
  MIC ATB in combination: <=0.25 μg/mL
[2]; PMI UFR126, AF1 @ 8 μg/mL
  MIC ATB in combination: <=0.25 μg/mL
[2]; PMI UFR127, AF1 @ 4 μg/mL
  MIC ATB in combination: <=0.25 μg/mL
[2]; PMI UFR127, AF1 @ 8 μg/mL
  MIC ATB in combination: <=0.25 μg/mL
[2]; PMI UFR129, AF1 @ 4 μg/mL
  MIC ATB in combination: <=0.25 μg/mL
[2]; PMI UFR129, AF1 @ 8 μg/mL
  MIC ATB in combination: <=0.25 μg/mL
[2]; PMI UFR130, AF1 @ 4 μg/mL
  MIC ATB in combination: <=0.25 μg/mL
[2]; PMI UFR130, AF1 @ 8 μg/mL
  MIC ATB in combination: <=0.25 μg/mL
[2]; PMI UFR237, AF1 @ 4 μg/mL
  MIC ATB in combination: 0.5 µg/mL
[2]; PMI UFR237, AF1 @ 8 μg/mL
  MIC ATB in combination: <=0.25 μg/mL
[2]; strain PMI UFR82 (CMY-2)
  MIC: 4 µg/mL
[2]; strain PMI UFR120 (TEM-1, SHV-11, CTX-M-14)
  MIC: ≤ 0.25 µg/mL
[2]; strain PMI UFR121 (TEM-1, TEM-52)
  MIC: 16 µg/mL
[2]; strain PMI UFR122 (TEM-1, CTX-M-15)
  MIC: 1 µg/mL
[2]; strain PMI UFR123 (CTX-M-1)
  MIC: 2 µg/mL
[2]; strain PMI UFR124 (CTX-M-2)
  MIC: 2 µg/mL
[2]; strain PMI UFR125 (CTX-M-71)
  MIC: 2 µg/mL
[2]; strain PMI UFR130 (CMY-2)
  MIC: 4 µg/mL

From patent US20200017496A1 (priority 2017, published 2020)
